These results are taken from publication PMC5321434, “Dihydrobenz[e][1,4]oxazepin-2(3H)-ones, a new anthelmintic chemotype immobilising whipworm and reducing infectivity in vivo” (PLoS Neglected Tropical Diseases, 2017).

The subject of one series is Ascaris. Also on record: method as in PMID 18430913. To be noted: annual treatment; cited from earlier work.
The subject of the next series is T. muris L1 larvae. Also on record: method as in PMID 23433224. Conditions: cited from earlier work.
Another series relates to L3/L4 and adult T. muris. Also on record: method as in PMID 25261877. To be noted: 200μg/ml (678μM); cited from earlier work.
The subject of the next series is T. trichiura. Conditions: single doses of benzimidazoles; cited from earlier work.
A short description of another series: WST-8 cytotoxicity assay. It is filed as cell-based, mouse. Conditions: mouse, CMT-93 rectal epithelial cells; resynthesised compound, WST-8 cytotoxicity; read-out: ResynCytotoxityWST-8(EC50uM). The procedure:
CMT-93 murine rectal epithelial cells were maintained in Dulbecco's Modified Eagle's Medium (DMEM) with 10% fetal calf serum (FCS) and 1% penicillin-streptomycin solution (10,000U/ml). Cells were plated in 96-well tissue culture plates at a density of 2x10^2 cells per well in a volume of 100μl, and cultured for 96 hours (37°C, 5% CO2) until reaching 30% confluence. The growth medium was removed and replaced with treatment media (DMEM, 1% FCS, 1% penicillin-streptomycin solution, 100μl assay volume) supplemented with vehicle alone (DMSO), test compounds or chlorpromazine, a positive control for cytotoxicity (final concentrations from 0 to 100μM). Maximum vehicle concentration for all compounds was 0.5% DMSO. Cells were cultured with the test compounds for 72 hours before cytotoxicity measurement. The WST-8 assay was performed using the Cell Counting Kit– 8 (Sigma Aldrich # 96992). 10μl of the CCK-8 solution was added to each well, plates were incubated for a further 2 hours, before absorbance was measured at 450nm using a microplate reader. This assay measures the ability of metabolically active cells to reduce a water-soluble formazan dye. Results were analysed using GraphPad Prism and fitted using a log-logistic model.
Background: Tetrazolium dyes change colour on reduction, which living cells bring about.

Series [1] concerns un-embryonated T. muris eggs. Put plainly: Embryonation assay. The arrangement: species or system Trichuris muris. To be noted: resynthesised compound, activity on T. muris embryonation (Yes/No). The procedure: To assess whether the dihydrobenzoxazepinone compounds could also prevent embryonation, 100 un-embryonated eggs were treated with OX02983 and OX03153 at 100μM for 56 days in the dark at room temperature, then examined under an Olympus SD-ILK microscope for signs of embryonation.

A further series has as its system adult T. muris. Put plainly: Ex vivo adult T. muris automated motility assay (primary/secondary screen at 100 μM and dose-response). The arrangement: species or system Trichuris muris. Summed up:
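Motility scored after 24 h (37 °C, 5% CO2) by automated imaging of pixel intensity variance, one worm per well, four weekly biological replicates. Worms came from SCID mice infected orally with 200 eggs, harvested day 35; screening at 100 μM final in RPMI-1640/antibiotics, 1% DMSO; curves fitted with four-parameter log-logistic model.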

The subject of series [2] is embryonated T. muris eggs. Put plainly: In vivo establishment of infection by compound-treated embryonated eggs. The arrangement: species or system Trichuris muris. To be noted: resynthesised compound, activity on T. muris egg infectivity (Yes/No). The procedure: 100 infective embryonated eggs were incubated with water, water plus DMSO vehicle, or test compounds at a final concentration of 100μM for 14 days at room temperature. Eggs were then washed, re-suspended in water and 30 eggs given to a mouse via oral gavage. At day 15 post-infection, mice were culled and the number of worms present in the caecae and colon was counted. One data point was excluded: a water control individual mouse where there were technical difficulties with the oral gavage leading to the mouse regurgitating some of the T. muris eggs. It was ear marked at day of gavage and removed from the analysis.
We collected data using the same experimental design on different occasions, these are referred to as batches. Data were obtained from three batches (DMSO and water controls, batches [A,B,C]) or two batches (OX02983 [A,C], OX03153 [B,C]) with the total number of mice used, n, as follows: DMSO: 14, water: 16, OX02983: 10, OX03153: 12. The data were analysed by 2-way ANOVA (worms ~ treatment + batch + treatment * batch). There was no significant interaction effect (P = 0.14) or effect of batch (P = 0.47). We therefore combined the data from the three batches. […] We then conducted a post-hoc test using Tukey’s honest significant difference test.

A short description of series [3]: Neutral red cytotoxicity assay. The format is cell-based, mouse. To be noted: mouse, CMT-93 rectal epithelial cells; resynthesised compound, neutral red cytotoxicity; read-out: ResynCytotoxicityNeutralRed(EC50uM). The procedure: CMT-93 murine rectal epithelial cells were maintained in Dulbecco's Modified Eagle's Medium (DMEM) with 10% fetal calf serum (FCS) and 1% penicillin-streptomycin solution (10,000U/ml). Cells were plated in 96-well tissue culture plates at a density of 2x10^2 cells per well in a volume of 100μl, and cultured for 96 hours (37°C, 5% CO2) until reaching 30% confluence. The growth medium was removed and replaced with treatment media (DMEM, 1% FCS, 1% penicillin-streptomycin solution, 100μl assay volume) supplemented with vehicle alone (DMSO), test compounds or chlorpromazine, a positive control for cytotoxicity (final concentrations from 0 to 100μM). Maximum vehicle concentration for all compounds was 0.5% DMSO. Cells were cultured with the test compounds for 72 hours before cytotoxicity measurement. Following the WST-8 assay, the medium was removed, cells were washed with 100μl PBS and then 100μl of neutral red medium (DMEM, 1% FBS and 33μg/ml neutral red dye (Sigma Aldrich #N2889) were added to each well, followed by incubation for a further 2 hours. The neutral red medium was removed, cells washed with 100μl of PBS and 100μl of destain solution (50% ethanol, 49% distilled water and 1% glacial acetic acid) were added. Each assay plate was shaken rapidly for 10 minutes before absorbance was measured at 540nm using a microplate reader. This assay measures the ability of living cells to actively take up the neutral red dye. Results were analysed using GraphPad Prism and fitted using a log-logistic model.

A further series has as its system T. muris L4 larvae. Also on record: method as in PMID 21889548. Conditions: maximum concentration tested 200μg/ml or 229μM; cited from earlier work.

Where two headings read alike, the source gives them in different places.

For the compound `COC(=O)Nc1nc2ccc(C(=O)c3ccccc3)cc2[nH]1` [Mebendazole], the “Cure rate, Ascaris” value with Ascaris is “up to 95%”. Besides, the “Activity against T. muris L1 larvae” value with T. muris L1 larvae (maximum concentration tested 50μg/ml or 169μM) was “not active”. Further, the “Activity against L3/L4 and adult T. muris” value in the series with L3/L4 and adult T. muris is “active”. For the same compound, the “Cure rate for infection with T. trichiura” value with T. trichiura is 36%.
Consider `Cc1ccc(CN2C(=O)COCc3cc(-c4cccnc4)ccc32)cc1` [Compound 5], for which the EC50 at 72 h (in the series “WST-8 cytotoxicity assay”; in series [3]) was > 100 µM throughout. Also, in series [1], the ResynActivityTmurisEmbryonation entry is “No”. For the same compound, the EC50 in the series with adult T. muris (Trichuris muris, resynthesised compound, adult T. muris paralysis, read-out: ResynActivityTmurisAdultParalysis(EC50uM)) amounted to 57 µM. In the series with adult T. muris (combined primary and secondary screen minus log fold change in movement, adult T. muris, 100 μM), the COMBINED_SCREEN_ACTIVITY came to 10.5493. This compound gave a PRIMARY_SCREEN_MINUS_LOG_FOLD_CHANGE_MOVEMENT in the series on adult T. muris (primary screen, adult T. muris motility, 100 μM) of 10.5493. In [2], the ResynActivityTmurisEggInfectivity entry is on record as “No”.
On to Ivermectin, for which the “Activity against T. muris L4 larvae” value in the series on T. muris L4 larvae is reported as “not active”. Also, the “Activity against T. muris L1 larvae” value in the series with T. muris L1 larvae (maximum concentration tested 50μg/ml or 57μM) is given as “not active”.
